Assay results: PMC12412453 (Toxicology, 2021)
“And” between values parts separate entries of the source, which are not always exact repeats. Equal values may be shown once. Read-outs that look alike come from different tables or passages of the source.

Key:
[1] = test system: primary human hepatocytes (PHHs); conditions: cited from earlier work
[2] = test system: primary human hepatocytes (PHHs); conditions: cited from earlier work; for Cytotoxicity: ATP assay, 24-h treatment
[3] = cited from earlier work
[4] = test system: peripheral blood and bone marrow of rhesus macaques; conditions: single and repeated administration, ref Hotchkiss et al., 2008; cited from earlier work
[5] = Cytotoxicity by ATP assay; conditions: rhesus macaque
[6] = test system: primary macaque hepatocytes (PMHs); experiment: Cytotoxicity by ATP assay; conditions: for Max. con. / Cytotoxicity: PMH, 24-h treatment; for Max. con.: maximum concentration
[7] = test system: primary macaque hepatocytes (PMHs); experiment: CometChip assay; conditions: for BMDU/BMDL / DNA damage (ratio of %DNA in tail at highest concentration to vehicle control) / LEC (lowest effective concentration) / BMDL50–BMDU50 / Potency ranking: PMH; for BMD50: PMH CometChip data, PROAST exponential model; for DNA damage (ratio of %DNA in tail at highest concentration to vehicle control) / LEC (lowest effective concentration): 24-h treatment; for LEC (lowest effective concentration): lowest concentration positive in comet assay; for BMDL50–BMDU50: 90 % confidence interval of BMD50; for Potency ranking: rank by BMD50 among nine positive compounds
[8] = test system: peripheral blood lymphocytes of male rhesus macaques; conditions: single dose of 50 mg/kg, ref Dobrovolsky et al., 2009; cited from earlier work
[9] = reported findings; ref References column of Table 1; cited from earlier work
[10] = test system: primary macaque hepatocytes (PMHs); conditions: rhesus macaque, 24 h
[11] = test system: primary macaque hepatocytes (PMHs); conditions: rhesus macaque, 24 h; remark: listed apart in the source
[12] = test system: Vero cells; conditions: ref Gomes et al., 2021; cited from earlier work
[13] = test system: bone marrow of rhesus macaques; conditions: ref Rao et al., 2005; cited from earlier work
[14] = PHH CometChip data reanalyzed using PROAST, ref Seo et al., 2020
[15] = PHH, 90 % confidence interval of BMD50, ref Seo et al., 2020
[16] = PHH, rank by BMD50 among nine positive compounds, ref Seo et al., 2020
[17] = PHH, lowest concentration positive in comet assay, ref Seo et al., 2020
[18] = PHH, maximum concentration, ref Seo et al., 2020
[19] = reported findings, ref References column of Table 1

SMILES	BMD50 [1, 14] [µM]	BMDL50–BMDU50 [1, 15] [µM]	Potency ranking [1, 16]	LEC (lowest effective concentration) [1, 17] [µM]	BMDU/BMDL ([1]; PHH, ref Seo et al., 2020)	DNA damage (ratio of %DNA in tail at highest concentration to vehicle control) ([1]; PHH, ref Seo et al., 2020)	Cytotoxicity ([2]; PHH, ref Seo et al., 2020)	Max. con. [2, 18]	Genotoxicity assay findings in vivo [3, 19]	Max. con. [6] [µM]	Cytotoxicity ([6]; ATP assay)	BMDU/BMDL [7]	BMD50 [7]	DNA damage (ratio of %DNA in tail at highest concentration to vehicle control) [7]	LEC (lowest effective concentration) [7] [µM]	BMDL50–BMDU50 [7] [µM]	Potency ranking [7]	also measured
O=P1(N(CCCl)CCCl)NCCCO1 (stereo not drawn) [CPA, cyclophosphamide]	248.2	135 to 437	8	1768	3.2	++ (2 < ratio ≤ 5)	+ (11–30 %)	10,000 μM	(+) for CA, MN, Pig-a, TG, and comet	5000	+++ (> 50 %)	2.3	253 µM and 253.8 µM	+++ (the ratio > 5)	937.5	165 to 372	7	cell viability ([2]; PHHs, 10,000 μM, ref Seo et al., 2020): 88%; micronucleated reticulocytes [4]: significantly increased; viability at 24 h, 2500 µM [5]: 50%; fold increase in % tail DNA (DNA damage) compared to the vehicle control ([7]; PMHs, highest acceptable concentration, range given for four compounds together): 6.1–8.1 fold; LEC fold higher in PHHs than in PMHs ([7]; comet assay LEC, PHH vs PMH): 2 fold
CCN(N=O)C(N)=O [ENU, N-ethyl-N-nitrosourea]	47.3	25.3 to 83.5	7	800	3.3	+++ (the ratio > 5)	− (cytotoxicity of 0–10 %)	3200 µM	(+) for CA, MN, Pig-a, TG, comet	3200	+ (11–30 %)	2.3	683 µM	+++ (the ratio > 5)	2400	439 to 1030	8	Pig-a and Hprt mutant frequencies [8]: significantly increased; Genotoxicity assay findings in vitro [9]: (+) for MLA, CA, MN, Pig-a, Hprt, comet, and UDS; cytotoxic effects (in words) ([6]; PMHs, ATP assay, 24-h exposure): cytotoxic effects over the same range of concentrations, but only in PMHs; BMD50 fold higher in PMHs than in PHHs (lower in PHHs) ([7]; CometChip BMD50, PMH vs PHH): 8–22 fold
COS(C)(=O)=O [MMS, methyl methanesulfonate]																		BMDL50–BMDU50 [10]: 14.2 to 33.7 µM; BMDU/BMDL [10]: 2.4; LEC (lowest effective concentration) [10]: 125 µM; Potency ranking [10]: 6; Max. con. [11]: 500 µM; BMD50 [1]: 1.0 µM; BMDL50–BMDU50 [1]: 0.5 to 1.9 µM; BMDU/BMDL [1]: 3.5; LEC (lowest effective concentration) [1]: 62.5 µM; Potency ranking [1]: 3; Max. con. [2]: 500 µM; Genotoxicity assay findings in vivo ([3]; in vivo): (+) for CA, MN, UDS, Pig-a, TG, comet
Cc1c(N(C)CS(=O)(=O)[O-])c(=O)n(-c2ccccc2)n1C.[Na+] [dipyrone]																		DNA damage by comet assay [12]: significant increases in DNA damage
S=P(N1CC1)(N1CC1)N1CC1 [thiotepa]																		chromosomal aberrations in bone marrow [13]: induced chromosomal aberrations
